Laboratory results reported in ChEMBL document CHEMBL1201862, “PubChem BioAssay data set” (2004).
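Step 1: Grow cells in 96-well plates. Step 2: Expose to compound for 48 hours at 5 concentrations. Step 3: Interpolate endpoints linearly; if unreached, use highest concentration. The concentration for 50% growth inhibition is given as GI50.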 The source made the active and inactive calls. Rule as the data show it: active = GI50 up to about 1.1 µM and inactive = higher.

Columns and labels:
Assay in all cases: NCI tumour cell line growth inhibition, 48 h
UO-31 = tested on: UO-31
786-0 = tested on: 786-0
HT-29 = tested on: HT-29
MDA-MB-231 = tested on: MDA-MB-231
NCI-H226 = tested on: NCI-H226
SF-295 = tested on: SF-295
SK-MEL-5 = tested on: SK-MEL-5
SW-620 = tested on: SW-620
RXF 393 = tested on: RXF 393
MOLT-4 = tested on: MOLT-4
CCRF-CEM = tested on: CCRF-CEM
ACHN = tested on: ACHN
SK-MEL-2 = tested on: SK-MEL-2
SR = tested on: SR
MDA-MB-435 = tested on: MDA-MB-435
M14 = tested on: M14
SNB-75 = tested on: SNB-75
HCT-116 = tested on: HCT-116
CAKI-1 = tested on: CAKI-1
NCI-H460 = tested on: NCI-H460

SMILES | GI50 (UO-31) | GI50 (786-0) | GI50 (HT-29) | GI50 (MDA-MB-231) | GI50 (NCI-H226) | GI50 (SF-295) | GI50 (SK-MEL-5) | GI50 (SW-620) | GI50 (RXF 393) | GI50 (MOLT-4) | GI50 (CCRF-CEM) | GI50 (ACHN) | GI50 (SK-MEL-2) | GI50 (SR) | GI50 (MDA-MB-435) | GI50 (M14) | GI50 (SNB-75) | GI50 (HCT-116) | GI50 (CAKI-1) | GI50 (NCI-H460)
CN(C)Cc1ccc(C(C)(C)C)cc1-c1cc(C(C)(C)C)ccc1CN(C)C | 42.7 µM (inactive) | 70.5 µM (inactive) | 33 µM (inactive) | 70.5 µM (inactive) | > 100 µM (inactive) | 33.5 µM (inactive) | 32.4 µM (inactive) | > 100 µM (inactive) | 97.1 µM (inactive) | 40.2 µM (inactive) | 42.7 µM (inactive) | > 100 µM (inactive) | 76.9 µM (inactive) | 39 µM (inactive) | 55.6 µM (inactive) | 20.8 µM (inactive) | 88.1 µM (inactive) | 37.7 µM (inactive) | > 100 µM (inactive) | 51.1 µM (inactive)
CCc1nc2c(c(N(C)C)c1C(=O)OC)CCc1ccccc1-2 | 37.4 µM (inactive) | 39.5 µM (inactive) | 27.7 µM (inactive) | 23.5 µM (inactive) | 21.5 µM (inactive) | 17.6 µM (inactive) | 17 µM (inactive) | 32.8 µM (inactive) | 31.2 µM (inactive) | 4.14 µM (inactive) | 2.45 µM (inactive) | 23 µM (inactive) | 17.8 µM (inactive) | 11.4 µM (inactive) | 23.4 µM (inactive) | 24 µM (inactive) | 35.4 µM (inactive) | 24.8 µM (inactive) | 51.1 µM (inactive) | 30.6 µM (inactive)
CC1CNC(c2cccc(-c3nc(-c4cccc(C5=NC(C)CN5)c4)nc(N(C)C)n3)c2)=N1 (stereo not given) | 3.77 µM (inactive) | 1.53 µM (inactive) | 0.895 µM (active) | 1.32 µM (inactive) | 1.9 µM (inactive) | 3.61 µM (inactive) | 2.59 µM (inactive) | 0.721 µM (active) | 3.21 µM (inactive) | 0.373 µM (active) | 0.587 µM (active) | 3.12 µM (inactive) | 2.02 µM (inactive) | 0.45 µM (active) | 1.19 µM (inactive) | 3.5 µM (inactive) | 1.91 µM (inactive) | 0.491 µM (active) | 18.1 µM (inactive) | 1.94 µM (inactive)
N=C(N)NS(=O)(=O)c1ccc(NCc2c3ccccc3nc3ccccc23)cc1 | 18.6 µM (inactive) | 1.07 µM (active) | 33.3 µM (inactive) | 23 µM (inactive) | 0.421 µM (active) | 2.45 µM (inactive) | 2.62 µM (inactive) | 1.59 µM (inactive) | 11.9 µM (inactive) | 0.0308 µM (active) | 0.0782 µM (active) | 1.39 µM (inactive) | > 20 µM (inactive) | 0.0363 µM (active) | 32.6 µM (inactive) | 4.67 µM (inactive) | 0.608 µM (active) | 3.01 µM (inactive) | 4.34 µM (inactive) | 0.0371 µM (active)
CCN(CC)CCCNc1ncc(C)c2c1c1ccc3c(O)cccc3c1n2C | 7.89 µM (inactive) | 0.789 µM (active) | 1.21 µM (inactive) | 1.57 µM (inactive) | 3.44 µM (inactive) | 1.73 µM (inactive) | 6.76 µM (inactive) | 0.883 µM (active) | 1.95 µM (inactive) | 0.043 µM (active) | 0.392 µM (active) | 1.8 µM (inactive) | 12.2 µM (inactive) | 0.282 µM (active) | 8.07 µM (inactive) | 4.15 µM (inactive) | 1.81 µM (inactive) | 1.05 µM (active) | 0.449 µM (active) | 1.02 µM (active)
